Test system: mammalian cell viability, cytotoxicity counter-screen
Assay: mammalian cell cytotoxicity, dose response, cytotoxicity control for M. tuberculosis inhibitor project (AID 435019)

CN(C)c1ccnc2c[cH-]cc12.[Fe].c1ccc(-[c-]2[c-](-c3ccccc3)[c-](-c3ccccc3)[c-](-c3ccccc3)[c-]2-c2ccccc2)cc1 (configuration not stated)
CC50: 11.8 µM

C[CH2][Hg][S]c1ccccc1C(=O)O
CC50: 3.56 µM
